Reference: the NIST ThermoML archive (doi:10.1016/j.jct.2006.04.005)
± gives the expanded uncertainty stated by the source.

Conditions: 303.15 K, 101 kPa, Liquid; for viscosity: Capillary tube (Ostwald / Ubbelohde) method; for mass density: Pycnometric method

Q: Which speed of sound does the source give for `Cc1ccccc1Cl` [2-chlorotoluene] here?
A: 1284 ± 8 m/s

Q: What about the viscosity of the same molecule?
A: 0.887 ± 0.023 mPa·s

Q: What about the mass density of the same molecule?
A: 1072.81 ± 6.5 kg/m3

Q: For `Cc1cccc(Cl)c1` [3-chlorotoluene], which speed of sound is on record?
A: 1280 ± 8 m/s

Q: What about the viscosity of the same molecule?
A: 0.78 ± 0.02 mPa·s

Q: And the mass density?
A: 1065.21 ± 6.4 kg/m3

Q: Which results are given for `Cc1cccc([N+](=O)[O-])c1` [3-nitrotoluene]?
A: viscosity: 1.777 ± 0.046 mPa·s; mass density: 1147.67 ± 7.4 kg/m3

Q: For `C[S+](C)[O-]` [dimethyl sulfoxide], which speed of sound is on record?
A: 1470 ± 9 m/s

Q: And the viscosity?
A: 1.803 ± 0.046 mPa·s

Q: What about the mass density of the same molecule?
A: 1091.35 ± 6.7 kg/m3

Q: For `Cc1ccccc1[N+](=O)[O-]` [2-nitrotoluene], which viscosity is on record?
A: 1.911 ± 0.049 mPa·s

Q: And the mass density?
A: 1153.24 ± 7.4 kg/m3
